In ChEMBL document CHEMBL3392967, “Phosphatidylinositol 3-Kinase (PI3K) and phosphatidylinositol 3-kinase-related kinase (PIKK) inhibitors: importance of the morpholine ring” (J Med Chem, 2015):
pIC50: −log10 of the molar value. Where “and” joins values, the source holds several entries; their conditions need not be identical. Identical values can stand only once.

Experiments:
[1] = target: T1, DNA-dependent protein kinase catalytic subunit (Homo sapiens, UniProt P78527); assay: Inhibition of DNA-PK (unknown origin)
T1 sequence (P78527 whole entry): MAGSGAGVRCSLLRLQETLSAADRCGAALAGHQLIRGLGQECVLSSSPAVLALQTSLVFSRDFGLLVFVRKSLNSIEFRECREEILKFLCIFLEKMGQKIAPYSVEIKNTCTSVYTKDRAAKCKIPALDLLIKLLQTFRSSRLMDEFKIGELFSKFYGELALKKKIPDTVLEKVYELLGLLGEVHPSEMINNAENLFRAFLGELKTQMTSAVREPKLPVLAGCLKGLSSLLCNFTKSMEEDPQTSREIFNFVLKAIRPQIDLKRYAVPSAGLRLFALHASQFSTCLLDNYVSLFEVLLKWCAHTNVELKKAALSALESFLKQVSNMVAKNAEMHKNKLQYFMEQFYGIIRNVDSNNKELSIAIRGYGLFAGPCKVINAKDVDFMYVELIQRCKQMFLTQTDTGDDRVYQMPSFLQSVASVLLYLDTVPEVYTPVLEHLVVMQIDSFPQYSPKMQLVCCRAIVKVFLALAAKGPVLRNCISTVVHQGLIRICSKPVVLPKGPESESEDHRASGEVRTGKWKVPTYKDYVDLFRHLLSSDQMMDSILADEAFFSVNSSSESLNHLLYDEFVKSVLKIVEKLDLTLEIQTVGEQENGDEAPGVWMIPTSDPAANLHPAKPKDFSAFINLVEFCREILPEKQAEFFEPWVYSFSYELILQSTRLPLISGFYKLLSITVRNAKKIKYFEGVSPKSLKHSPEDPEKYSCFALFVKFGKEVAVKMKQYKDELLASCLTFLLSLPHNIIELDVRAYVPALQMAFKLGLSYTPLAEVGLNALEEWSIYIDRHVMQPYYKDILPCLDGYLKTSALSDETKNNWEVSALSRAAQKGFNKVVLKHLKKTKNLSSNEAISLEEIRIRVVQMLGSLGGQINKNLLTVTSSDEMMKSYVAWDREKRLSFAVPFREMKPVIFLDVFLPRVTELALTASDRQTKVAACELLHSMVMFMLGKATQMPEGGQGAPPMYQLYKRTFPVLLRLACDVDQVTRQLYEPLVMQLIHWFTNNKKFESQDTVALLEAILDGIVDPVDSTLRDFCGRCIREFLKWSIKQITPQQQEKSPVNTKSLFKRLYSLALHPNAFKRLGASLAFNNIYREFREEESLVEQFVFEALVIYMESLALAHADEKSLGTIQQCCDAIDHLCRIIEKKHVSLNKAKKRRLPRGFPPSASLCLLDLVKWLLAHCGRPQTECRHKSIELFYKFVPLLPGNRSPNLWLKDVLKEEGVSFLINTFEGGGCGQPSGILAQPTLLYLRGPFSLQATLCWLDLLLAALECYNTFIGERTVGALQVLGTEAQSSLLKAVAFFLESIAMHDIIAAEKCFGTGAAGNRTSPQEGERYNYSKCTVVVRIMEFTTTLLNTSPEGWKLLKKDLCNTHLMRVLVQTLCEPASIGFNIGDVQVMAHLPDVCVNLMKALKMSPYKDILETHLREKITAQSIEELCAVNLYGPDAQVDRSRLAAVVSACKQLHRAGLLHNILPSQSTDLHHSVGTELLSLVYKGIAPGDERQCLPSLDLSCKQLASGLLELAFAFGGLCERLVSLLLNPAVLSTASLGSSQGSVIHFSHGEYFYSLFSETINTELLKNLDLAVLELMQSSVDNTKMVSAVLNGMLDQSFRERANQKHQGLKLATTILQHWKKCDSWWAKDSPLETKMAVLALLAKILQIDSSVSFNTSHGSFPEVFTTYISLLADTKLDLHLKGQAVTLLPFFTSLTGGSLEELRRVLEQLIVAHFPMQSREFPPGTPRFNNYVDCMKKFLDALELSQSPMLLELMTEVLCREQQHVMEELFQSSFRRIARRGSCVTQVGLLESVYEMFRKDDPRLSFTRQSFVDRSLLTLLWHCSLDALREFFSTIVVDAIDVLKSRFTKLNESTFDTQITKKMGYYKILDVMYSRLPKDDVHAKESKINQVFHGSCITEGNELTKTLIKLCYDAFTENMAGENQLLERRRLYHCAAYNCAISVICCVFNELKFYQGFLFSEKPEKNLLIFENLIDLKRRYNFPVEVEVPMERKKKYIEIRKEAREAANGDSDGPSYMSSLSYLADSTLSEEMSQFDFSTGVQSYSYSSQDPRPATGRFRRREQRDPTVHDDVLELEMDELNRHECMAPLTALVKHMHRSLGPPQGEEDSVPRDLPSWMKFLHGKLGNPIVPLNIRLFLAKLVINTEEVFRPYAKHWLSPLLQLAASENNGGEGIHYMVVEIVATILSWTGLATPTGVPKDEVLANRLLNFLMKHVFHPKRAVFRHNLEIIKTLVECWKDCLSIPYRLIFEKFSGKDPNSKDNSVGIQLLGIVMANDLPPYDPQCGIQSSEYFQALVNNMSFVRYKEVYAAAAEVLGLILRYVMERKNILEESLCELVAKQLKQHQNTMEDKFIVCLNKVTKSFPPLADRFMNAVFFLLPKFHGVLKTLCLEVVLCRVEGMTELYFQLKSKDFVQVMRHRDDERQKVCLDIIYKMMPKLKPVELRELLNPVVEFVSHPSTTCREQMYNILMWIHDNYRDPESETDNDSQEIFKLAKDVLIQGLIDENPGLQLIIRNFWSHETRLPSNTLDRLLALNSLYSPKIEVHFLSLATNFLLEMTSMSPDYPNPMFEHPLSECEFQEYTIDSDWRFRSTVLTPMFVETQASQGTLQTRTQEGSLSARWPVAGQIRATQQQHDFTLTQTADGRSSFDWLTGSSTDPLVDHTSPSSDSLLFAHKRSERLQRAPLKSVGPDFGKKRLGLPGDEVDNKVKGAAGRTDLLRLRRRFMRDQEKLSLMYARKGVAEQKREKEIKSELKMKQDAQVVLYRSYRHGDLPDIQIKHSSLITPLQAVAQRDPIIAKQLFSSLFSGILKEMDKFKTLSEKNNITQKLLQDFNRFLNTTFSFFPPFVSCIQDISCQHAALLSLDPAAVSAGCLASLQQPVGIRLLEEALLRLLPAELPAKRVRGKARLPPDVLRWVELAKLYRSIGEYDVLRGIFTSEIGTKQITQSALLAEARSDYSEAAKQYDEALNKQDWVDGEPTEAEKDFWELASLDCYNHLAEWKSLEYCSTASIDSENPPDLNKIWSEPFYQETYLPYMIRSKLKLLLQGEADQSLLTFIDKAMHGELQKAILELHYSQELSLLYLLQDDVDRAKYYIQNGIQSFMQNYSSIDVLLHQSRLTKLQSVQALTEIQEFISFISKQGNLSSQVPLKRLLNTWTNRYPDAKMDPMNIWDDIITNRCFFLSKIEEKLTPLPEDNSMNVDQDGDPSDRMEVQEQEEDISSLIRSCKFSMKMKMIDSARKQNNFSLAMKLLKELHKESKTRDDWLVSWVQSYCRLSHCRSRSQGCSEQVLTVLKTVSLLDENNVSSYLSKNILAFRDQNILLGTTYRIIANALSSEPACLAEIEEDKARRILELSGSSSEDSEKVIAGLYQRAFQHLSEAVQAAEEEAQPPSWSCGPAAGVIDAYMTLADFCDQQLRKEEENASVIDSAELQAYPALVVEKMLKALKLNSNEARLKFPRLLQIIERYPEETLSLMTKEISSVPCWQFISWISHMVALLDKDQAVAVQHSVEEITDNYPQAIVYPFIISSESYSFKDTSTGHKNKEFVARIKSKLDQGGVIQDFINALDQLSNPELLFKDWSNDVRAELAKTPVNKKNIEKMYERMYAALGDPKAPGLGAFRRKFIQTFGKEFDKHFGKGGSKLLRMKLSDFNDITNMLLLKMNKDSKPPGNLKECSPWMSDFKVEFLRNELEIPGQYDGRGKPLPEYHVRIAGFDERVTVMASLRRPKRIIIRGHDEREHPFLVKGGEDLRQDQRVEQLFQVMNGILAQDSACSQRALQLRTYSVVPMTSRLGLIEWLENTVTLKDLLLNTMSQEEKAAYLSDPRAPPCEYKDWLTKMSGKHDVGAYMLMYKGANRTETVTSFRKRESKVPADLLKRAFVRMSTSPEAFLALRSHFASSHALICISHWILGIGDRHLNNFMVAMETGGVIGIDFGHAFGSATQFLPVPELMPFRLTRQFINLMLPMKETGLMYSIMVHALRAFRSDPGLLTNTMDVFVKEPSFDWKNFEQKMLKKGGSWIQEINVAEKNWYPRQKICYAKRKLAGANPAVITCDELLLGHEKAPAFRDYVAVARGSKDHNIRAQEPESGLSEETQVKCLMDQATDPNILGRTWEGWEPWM

[2] = Half life in mouse plasma at 25 mg/kg single dose; type: ADME, organism-based; design: dose 25 mg/kg
[3] = target: T1, DNA-dependent protein kinase catalytic subunit; assay: Inhibition of DNA-PK purified from HeLa nuclear extracts assessed as EPPLSQEAFADLWKKR peptide substrate phosphorylation
[4] = target: Phosphatidylinositol 4,5-bisphosphate 3-kinase catalytic subunit alpha isoform (Homo sapiens, UniProt P42336)
Chain of Phosphatidylinositol 4,5-bisphosphate 3-kinase catalytic subunit alpha isoform (P42336 whole entry, canonical isoform): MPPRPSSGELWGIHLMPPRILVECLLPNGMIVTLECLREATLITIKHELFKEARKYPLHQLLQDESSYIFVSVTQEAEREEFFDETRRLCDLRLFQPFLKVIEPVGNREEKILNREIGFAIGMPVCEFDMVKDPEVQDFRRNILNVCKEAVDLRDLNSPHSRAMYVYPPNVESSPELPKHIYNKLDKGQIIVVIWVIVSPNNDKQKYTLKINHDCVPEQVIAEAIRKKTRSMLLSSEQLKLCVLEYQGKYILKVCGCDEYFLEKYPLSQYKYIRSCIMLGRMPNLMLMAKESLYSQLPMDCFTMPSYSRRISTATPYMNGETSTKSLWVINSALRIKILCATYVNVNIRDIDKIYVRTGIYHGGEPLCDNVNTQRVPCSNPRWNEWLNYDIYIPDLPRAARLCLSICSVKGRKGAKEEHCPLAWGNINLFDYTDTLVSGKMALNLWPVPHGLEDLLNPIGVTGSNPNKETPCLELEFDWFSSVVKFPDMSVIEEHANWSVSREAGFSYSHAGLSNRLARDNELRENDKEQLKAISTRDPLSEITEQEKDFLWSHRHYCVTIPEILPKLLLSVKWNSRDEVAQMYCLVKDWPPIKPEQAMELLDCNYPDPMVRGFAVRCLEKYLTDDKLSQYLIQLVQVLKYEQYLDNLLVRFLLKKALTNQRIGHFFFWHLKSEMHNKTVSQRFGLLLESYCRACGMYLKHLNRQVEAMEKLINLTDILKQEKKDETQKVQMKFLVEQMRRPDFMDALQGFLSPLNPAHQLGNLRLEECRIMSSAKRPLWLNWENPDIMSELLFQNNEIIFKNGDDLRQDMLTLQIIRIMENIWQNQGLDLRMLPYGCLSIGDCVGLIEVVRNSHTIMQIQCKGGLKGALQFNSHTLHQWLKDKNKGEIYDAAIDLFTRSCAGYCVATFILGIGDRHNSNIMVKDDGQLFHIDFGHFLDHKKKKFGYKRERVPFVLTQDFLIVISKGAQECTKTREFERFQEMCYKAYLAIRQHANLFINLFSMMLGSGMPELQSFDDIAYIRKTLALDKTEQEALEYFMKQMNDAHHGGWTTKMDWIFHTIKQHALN

[5] = Inhibition of rapamycin-insensitive mTORC2 (unknown origin); design: species or system Homo sapiens
[6] = Oral bioavailability in BALB/C mouse; type: ADME, organism-based; conditions: in vivo
[7] = Half life in BALB/C mouse; type: ADME, organism-based; conditions: in vivo
[8] = target: Serine/threonine-protein kinase mTOR (Rattus norvegicus, UniProt P42346); assay: Inhibition of rat derived mTOR using [gamma32P]ATP
[9] = target: T2, Phosphatidylinositol 4,5-bisphosphate 3-kinase catalytic subunit delta isoform (Homo sapiens, UniProt O00329)
T2 sequence (O00329 whole entry): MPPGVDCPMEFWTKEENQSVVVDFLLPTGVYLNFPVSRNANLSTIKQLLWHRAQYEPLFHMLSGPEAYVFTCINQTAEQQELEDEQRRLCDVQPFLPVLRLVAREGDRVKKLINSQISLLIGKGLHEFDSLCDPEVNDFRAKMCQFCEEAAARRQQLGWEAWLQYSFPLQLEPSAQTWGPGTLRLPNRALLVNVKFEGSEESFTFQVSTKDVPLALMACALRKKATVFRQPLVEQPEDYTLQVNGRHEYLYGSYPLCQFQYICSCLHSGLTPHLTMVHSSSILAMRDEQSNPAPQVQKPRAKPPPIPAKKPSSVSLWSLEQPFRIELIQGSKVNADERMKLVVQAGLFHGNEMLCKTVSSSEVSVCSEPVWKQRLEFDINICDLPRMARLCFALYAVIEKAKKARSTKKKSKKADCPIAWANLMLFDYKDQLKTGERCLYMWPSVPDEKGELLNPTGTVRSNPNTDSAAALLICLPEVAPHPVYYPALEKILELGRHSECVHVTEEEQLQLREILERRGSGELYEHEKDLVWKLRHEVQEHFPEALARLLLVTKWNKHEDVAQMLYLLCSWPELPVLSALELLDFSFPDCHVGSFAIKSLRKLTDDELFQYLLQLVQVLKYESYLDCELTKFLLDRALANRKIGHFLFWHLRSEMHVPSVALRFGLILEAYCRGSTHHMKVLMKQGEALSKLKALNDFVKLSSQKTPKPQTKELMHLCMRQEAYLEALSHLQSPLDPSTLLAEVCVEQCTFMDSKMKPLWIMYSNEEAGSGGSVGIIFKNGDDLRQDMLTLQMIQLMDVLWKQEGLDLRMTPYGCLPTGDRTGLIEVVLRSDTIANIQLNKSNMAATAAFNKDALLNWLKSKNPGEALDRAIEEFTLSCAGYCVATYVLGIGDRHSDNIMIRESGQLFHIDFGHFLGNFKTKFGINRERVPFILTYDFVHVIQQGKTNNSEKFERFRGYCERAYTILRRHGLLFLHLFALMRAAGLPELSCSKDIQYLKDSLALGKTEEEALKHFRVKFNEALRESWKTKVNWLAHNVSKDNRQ

[10] = target: Serine/threonine-protein kinase mTOR (Homo sapiens, UniProt P42345); assay: Inhibition of mTOR (unknown origin)
[11] = tested on: MDA-MB-361; assay: cells; conditions: Homo sapiens
[12] = Oral bioavailability in mouse; type: ADME, organism-based; conditions: in vivo

O=c1cc(N2CCOCC2)oc2c(-c3cccc4c3oc3ccccc34)cccc12
pIC50 [1]: 7.39

CN(C)C1CCN(C(=O)c2ccc(NC(=O)Nc3ccc(-c4nc(N5CCOCC5)nc(N5CCOCC5)n4)cc3)cc2)CC1 [GEDATOLISIB]
half-life [2]: 3.5 h

Cc1ccc2c(=O)cc(N3CCOCC3)oc2c1-c1cccc2c1sc1ccccc12
pIC50 [1]: 8.30 and 7.85

O=C(c1ccc(O)cc1)c1ccc(N2CCOCC2)cc1O
pIC50 [3]: 7.46

Oc1ccc2nc(-c3ccccc3)nc(N3CCOCC3)c2c1
pIC50 [4]: 5.89

O=c1cc(N2CCOCC2)nc2c(-c3cccc4c3sc3ccccc34)cccn12
pIC50 [1]: 7.89

Cc1cc(C(C)Nc2ccccc2)c2nc(N3CCOCC3)cc(=O)n2c1 (stereo not drawn)
pIC50 [4]: < 6.00

Oc1cccc(-c2nc(N3CCOCC3)c3oc4ncccc4c3n2)c1 [PI-103]
pIC50 [5]: 7.08

O=c1cc(-c2ccccc2)oc2cc(N3CCOCC3)cc(O)c12
pIC50 [3]: 7.47

COc1ccc2oc(=O)cc(N3CCOCC3)c2c1
pIC50 [1]: 5.92

Cc1nc2c(-c3cnc(N)nc3)nc(N3CCOCC3)nc2n1C(C)C [VS-5584]
bioavailability [6]: 100% | half-life [7]: 10 h

O=c1cc(N2CCOCC2)oc2c(-c3ccccc3)cccc12 [LY-294002]
pIC50 [8]: 5.60 | pIC50 [9]: 5.80

CCn1nnc2c(N3CCOCC3)nc(-c3ccc(NC(=O)Nc4ccc(C(=O)N5CCN(C)CC5)cc4)cc3)nc21
pIC50 [10]: 8.52 | pIC50 [11]: 8.00 | bioavailability [12]: 88.6%

CNC(=O)Nc1ccc(-c2nc(N3CCOCC3)nc3c2cnn3C2CCOCC2)cc1
pIC50 [10]: 7.64
